Where two headings read alike, the source gives them in different places.
Columns and labels:
[1] = cited from earlier work
[2] = cited from earlier work; remark: listed apart in the source
Sprague-Dawley rats [3] = experiment: Enalapril or L-Arginine in hyperuricemic rats on low salt diet: blood pressure (Example 4); format: in vivo, rat; details: for systolic blood pressure lower than the hyperuricemic controls: at 7 weeks, enalapril 1 mg/kg/d or L-Arginine 1% in drinking water, p<0.05; for effect on systolic blood pressure of hyperuricemic rats: treatment from the outset, 7 weeks
Experimental: Rats were placed on either low salt diet, low salt diet with 2% oxonic acid, low salt diet with oxonic acid and enalapril (1 mg/kg/d in drinking water), or low salt diet with oxonic acid and L-Arginine (1% in drinking water).
(§1) Am J Physiol 268:F1 164-76, 1995].

Sprague-Dawley rats [4] = experiment: Renal findings at 7 weeks: immunohistochemistry and BUN (Example 2); format: in vivo, rat; details: low NaCl diet
Experimental: (§2) Rats were placed on a low sodium diet (NaCl, 0.125%) with or without 2% oxonic acid for 7 weeks. A third group were administered allopurinol in the drinking water (150 mg/L) with weekly adjustments of the dose depending on the uric acid level.
(§3) Am J Clin Pathol 1957; 28:152.]. Serum blood urea nitrogen was measured by a standard kit (Sigma, St Louis, Mo.).
(§4) Renal biopsies were fixed in Methyl-Carnoy's, 10% formalin or 100% ethanol and embedded in paraffin. The presence of uric acid crystals was evaluated by staining 4-μm ethanol-fixed sections with de Galantha and modified Von Kossa stains. Kidney tissue from rats with acute uric acid nephropathy, induced with oxonic acid and uric acid administration was used as a positive control [Stavric, B., Johnson, W. J., and Grice, H. C., Uric acid nephropathy: An experimental model, Proc. Soc. Exp. Biol. Med. 130: 512-16 (1969).]. Light microscopy was performed in 4-μm sections of Methyl-Carnoy's fixed tissue stained with periodic acid Schiff (PAS) reagent or with hematoxylin and eosin.
(§5) Methyl-Carnoy's fixed tissue sections were analyzed by indirect immunoperoxidase [Lombardi, D., Gordon , K. L., Polinsky, P., Suga, S., Schwartz, S. M., and Johnson, R. J. Salt sensitive hypertension develops after transient exposure to angiotensin II. Hypertension 33:1013-1019, 1999] staining with the following primary antibodies: OP199, a goat polyclonal antibody against osteopontin (OPN)(gift of C. Giachelli, Univ of Wash., Seattle); ED-1, a monoclonal antibody to rat monocytes and macrophages (Serotec); goat antihuman type III collagen (Southern Biotechnology Associates Inc, Birminghan Ala.); and anti-renin, a mouse antibody to human renin (Sanofi Recherche, Montpellier, France). Sections were incubated with a secondary antibody followed by horseradish peroxidase-conjugated avidin D (Vector Laboratories, Burlingame, Calif.), diaminobenzidine (Sigma) with or without nickel chloride as a chromogen, and counsterstained with methyl green.
(§6) NOS1 was detected on formalin fixed tissue sections with a rabbit anti-rat neuronal nitric oxide synthase (Transduction Laboratories, Lexington, Ky.), followed by a biotinylated secondary antibody, diaminobenzidine with nickel chloride and counterstained with nuclear fast red.
(§7) All quantification was performed blinded. The tubular expression of osteopontin (OPN), which is a sensitive marker of tubulointerstitial injury, was calculated as the percent of renal cortex occupied by OPN-positive tubules [Lombardi, D., Gordon, K. L., Polinsky, P., Suga, S., Schwartz, S. M., and Johnson, R. J. Salt sensitive hypertension develops after transient exposure to angiotensin II. Hypertension 33:1013-1019, 1999]. Utilizing computer-assisted image analysis software (Optimas V6.2, Media Cybernetics, Silver Springs, Md.) and digitized images, the percent of area occupied by OPN positive tubules per 4 mm^2 field at a magnification of 50× was measured and the mean percent area calculated for each biopsy. The interstitial deposition of collagen type III was calculated as the % of renal cortex occupied by collagen III, noted by immunostaining, by computer image analysis. The mean number of interstitial macrophages (ED-1+cells) in each biopsy was calculated in a blinded manner by counting the total number of positive interstitial cortical cells in 20 sequentially selected 0.25 mm^2 grids at 200× magnification. Renin expression was quantified by the number of glomeruli with positive staining for juxtaglomerular renin using a minimum of 100 glomeruli in each biopsy as previously described [Eng, E., et al., Renal proliferation and phenotypic changes in rats with two-kidney, one-clip Goldblatt hypertension. Am J Hypertens 7:177-185 (1994)]; this has been shown previously to correlate with intrarenal renin content[Eng, E., et al., Renal proliferation and phenotypic changes in rats with two-kidney, one-clip Goldblatt hypertension. Am J Hypertens 7:177-185 (1994)]. […]

Sprague-Dawley rats [5] = experiment: Renal findings at 11 weeks: immunohistochemistry and BUN (Example 3); format: in vivo, rat; details: low NaCl diet, allopurinol added at 7 weeks
Experimental: (§8) Rats were placed on the low sodium diet with oxonic acid for 7 weeks, and then were matched based on uric acid level and blood pressure in various groups to either receive allopurinol, have the oxonic acid withdrawn from the diet, or continue the oxonic acid/low salt diet. A control group of six rats were placed on the lowsodium diet alone for 11 weeks. All of these rats were sacrificed at week 11.
as §3, §4, §5, §6
as §7, with “hypertension.” for “hypertension. Am J Hypertens 7:177-185 (1994)]; this has been shown previously to correlate with intrarenal renin content[Eng, E., et al., Renal proliferation and phenotypic changes in rats with two-kidney, one-clip Goldblatt hypertension. Am J Hypertens 7:177-185 (1994)].”

Sprague-Dawley rats [6] = experiment: Allopurinol intervention or oxonic acid withdrawal in hyperuricemic rats: blood pressure (Example 3); format: in vivo, rat; details: allopurinol added at 7 weeks, OA/LSD continued
Text: as §8, §1, §3

Sprague-Dawley rats [7] = experiment: Oxonic acid on low sodium diet with or without allopurinol: blood pressure, uric acid (Example 2); format: in vivo, rat; details: allopurinol from the initiation of the oxonic acid diet, low salt
Experimental: All studies utilized adult male Sprague-Dawley rats (Simonsen Laboratories, Gilroy Calif.)(200-250 g).
as §2
Am J Physiol 268:F1164-76, 1995].
as §3

## CCCCc1nc(Cl)c(CO)n1Cc1ccc(-c2ccccc2-c2nn[nH]n2)cc1 [Compound No. 9, losartan potassium]
[1]; 25 mg/man oral, in hunger, 0 hr (when administered)
  Concentration of Uric Acid in serum: 5.2 ± 0.5 mg/dL
[1]; 25 mg/man oral, in hunger, 4 hr
  Concentration of Uric Acid in serum: 4.8 ± 0.6 mg/dL
[1]; 25 mg/man oral, in hunger, 24 hr
  Concentration of Uric Acid in serum: 4.6 ± 0.6 mg/dL
[1]; 50 mg/man oral, in hunger, 0 hr (when administered)
  Concentration of Uric Acid in serum: 6.1 ± 1.4 mg/dL
[1]; 50 mg/man oral, in hunger, 4 hr
  Concentration of Uric Acid in serum: 5.3 ± 1.3 mg/dL
[1]; 50 mg/man oral, in hunger, 24 hr
  Concentration of Uric Acid in serum: 5.6 ± 1.4 mg/dL
[1]; 100 mg/man oral, after meal, 4 hr
  Concentration of Uric Acid in serum: 4.9 ± 1.0 mg/h
[1]; 100 mg/man oral, in hunger, 0 hr (when administered)
  Concentration of Uric Acid in serum: 5.9 ± 0.9 mg/dL
[1]; 100 mg/man oral, in hunger, 4 hr
  Concentration of Uric Acid in serum: 4.6 ± 0.7 mg/dL
[1]; 100 mg/man oral, in hunger, 24 hr
  Concentration of Uric Acid in serum: 5.2 ± 0.8 mg/dL
[1]; 200 mg/man oral, in hunger, 0 hr (when administered)
  Concentration of Uric Acid in serum: 5.6 ± 0.7 mg/dL
[1]; 200 mg/man oral, in hunger, 4 hr
  Concentration of Uric Acid in serum: 4.3 ± 0.9 mg/dL
[1]; 200 mg/man oral, in hunger, 24 hr
  Concentration of Uric Acid in serum: 5.0 ± 0.9 mg/dL
[2]; 25 mg/man oral, in hunger, 4-8 hr
  uric acid excretion in urine (Concentration of Uric Acid): 32.4 ± 14.7 mg/h
[2]; 25 mg/man oral, in hunger, 8-12 hr
  uric acid excretion in urine (Concentration of Uric Acid): 28.7 ± 13.6 mg/h
[2]; 25 mg/man oral, in hunger, 12-24 hr
  uric acid excretion in urine (Concentration of Uric Acid): 19.7 ± 9.9 mg/h
[2]; 25 mg/man oral, in hunger, 24-40 hr
  uric acid excretion in urine (Concentration of Uric Acid): 33.2 ± 21.9 mg/h
[2]; 50 mg/man oral, in hunger, 0-4 hr
  uric acid excretion in urine (Concentration of Uric Acid): 52.8 ± 4.3 mg/h
[2]; 50 mg/man oral, in hunger, 8-12 hr
  uric acid excretion in urine (Concentration of Uric Acid): 39.1 ± 4.4 mg/h
[2]; 50 mg/man oral, in hunger, 12-24 hr
  uric acid excretion in urine (Concentration of Uric Acid): 22.2 ± 3.8 mg/h
[2]; 50 mg/man oral, in hunger, 24-40 hr
  uric acid excretion in urine (Concentration of Uric Acid): 26.6 ± 5.4 mg/h
[2]; 100 mg/man oral, after meal, 0-4 hr
  uric acid excretion in urine (Concentration of Uric Acid): 75.9 ± 19.0 mg/h
[2]; 100 mg/man oral, after meal, 4-8 hr
  uric acid excretion in urine (Concentration of Uric Acid): 59.0 ± 3.8 mg/h
[2]; 100 mg/man oral, after meal, 8-12 hr
  uric acid excretion in urine (Concentration of Uric Acid): 31.8 ± 4.5 mg/h
[2]; 100 mg/man oral, after meal, 12-24 hr
  uric acid excretion in urine (Concentration of Uric Acid): 19.7 ± 2.5 mg/h
[2]; 100 mg/man oral, after meal, 24-40 hr
  uric acid excretion in urine (Concentration of Uric Acid): 29.5 ± 4.1 mg/h
[2]; 100 mg/man oral, in hunger, 0-4 hr
  uric acid excretion in urine (Concentration of Uric Acid): 81.2 ± 15.7 mg/h
[2]; 100 mg/man oral, in hunger, 4-8 hr
  uric acid excretion in urine (Concentration of Uric Acid): 36.4 ± 7.7 mg/h
[2]; 100 mg/man oral, in hunger, 8-12 hr
  uric acid excretion in urine (Concentration of Uric Acid): 30.1 ± 6.8 mg/h
[2]; 100 mg/man oral, in hunger, 12-24 hr
  uric acid excretion in urine (Concentration of Uric Acid): 19.2 ± 4.2 mg/h
[2]; 100 mg/man oral, in hunger, 24-40 hr
  uric acid excretion in urine (Concentration of Uric Acid): 28.0 ± 7.2 mg/h
[2]; 200 mg/man oral, in hunger, 0-4 hr
  uric acid excretion in urine (Concentration of Uric Acid): 78.7 ± 15.3 mg/h
[2]; 200 mg/man oral, in hunger, 4-8 hr
  uric acid excretion in urine (Concentration of Uric Acid): 25.4 ± 6.6 mg/h
[2]; 200 mg/man oral, in hunger, 8-12 hr
  uric acid excretion in urine (Concentration of Uric Acid): 19.6 ± 5.2 mg/h
[2]; 200 mg/man oral, in hunger, 12-24 hr
  uric acid excretion in urine (Concentration of Uric Acid): 13.4 ± 2.3 mg/h
[2]; 200 mg/man oral, in hunger, 24-40 hr
  uric acid excretion in urine (Concentration of Uric Acid): 21.0 ± 3.0 mg/h

## CCOC(=O)[C@H](CCc1ccccc1)N[C@@H](C)C(=O)N1CCC[C@H]1C(=O)O [enalapril]
Sprague-Dawley rats [3]
  systolic blood pressure lower than the hyperuricemic controls: 25 mm Hg
  effect on systolic blood pressure of hyperuricemic rats: lowest systolic blood pressures

## N=C(N)NCCC[C@H](N)C(=O)O [L-Arginine]
Sprague-Dawley rats [3]
  systolic blood pressure lower than the hyperuricemic controls: 25 mm Hg
  effect on systolic blood pressure of hyperuricemic rats: largely prevented this increase

## Oc1ncnc2[nH]ncc12 [Allopurinol, allopurinol]
Sprague-Dawley rats [4]; control 39.6 ± 2.0
  Renin: 44.1 ± 1.6 % positive JGA
Sprague-Dawley rats [4]; control 147.2 ± 12.4
  NOS-1: 97.4 ± 5.6 positive cells/100 glomeruli
Sprague-Dawley rats [4]; mean±SE, control 0.9 ± 0.06
  OPN: 1.3 ± 0.15 % increase
Sprague-Dawley rats [4]; mean±SE, control 5.4 ± 0.3
  Type III collagen: 6.2 ± 0.6%
Sprague-Dawley rats [4]; mean±SE, control 14.4 ± 1.2
  BUN: 15.2 ± 2.3 mg/dL
Sprague-Dawley rats [4]; mean±SE, control 18.3 ± 1.3
  ED-1 (macrophages): 20.5 ± 0.6 cells/mm2
Sprague-Dawley rats [5]; control 0.7 ± 0.08
  OPN: 0.97 ± 0.03 % increase
Sprague-Dawley rats [5]; control 7.2 ± 0.6
  Type III collagen: 9.6 ± 0.3 %
Sprague-Dawley rats [5]; control 16.6 ± 0.9
  BUN: 17.7 ± 0.5 mg/dL
Sprague-Dawley rats [5]; control 27.8 ± 1.4
  ED-1 (macrophages): 25.2 ± 2.6 cells/mm2
Sprague-Dawley rats [5]; control 41.0 ± 1.9
  Renin: 44.2 ± 1.3 % positive JGA
Sprague-Dawley rats [5]; control 104.4 ± 11.5
  NOS-1: 98.6 ± 5.1 positive cells/100 glomeruli
Sprague-Dawley rats [6]
  blood pressure and serum uric acid in hypertensive, hyperuricemic rats: reduction in the blood pressure in association with a fall in serum uric acid values
Sprague-Dawley rats [7]
  development of hyperuricemia and hypertension: prevented
